Source: ChEMBL document CHEMBL1909046, “DrugMatrix in vitro pharmacology data”

What was measured:
[1] = molecular target: T1, Alpha-1B adrenergic receptor (Rattus norvegicus, UniProt P15823); assay: DRUGMATRIX: Alpha-1B adrenergic receptor radioligand binding (ligand: prazosin); type: cell membranes, Wistar, Liver, Membrane; settings: Not Active = under 50% inhibition at 10 µM
T1 sequence (P15823 whole entry): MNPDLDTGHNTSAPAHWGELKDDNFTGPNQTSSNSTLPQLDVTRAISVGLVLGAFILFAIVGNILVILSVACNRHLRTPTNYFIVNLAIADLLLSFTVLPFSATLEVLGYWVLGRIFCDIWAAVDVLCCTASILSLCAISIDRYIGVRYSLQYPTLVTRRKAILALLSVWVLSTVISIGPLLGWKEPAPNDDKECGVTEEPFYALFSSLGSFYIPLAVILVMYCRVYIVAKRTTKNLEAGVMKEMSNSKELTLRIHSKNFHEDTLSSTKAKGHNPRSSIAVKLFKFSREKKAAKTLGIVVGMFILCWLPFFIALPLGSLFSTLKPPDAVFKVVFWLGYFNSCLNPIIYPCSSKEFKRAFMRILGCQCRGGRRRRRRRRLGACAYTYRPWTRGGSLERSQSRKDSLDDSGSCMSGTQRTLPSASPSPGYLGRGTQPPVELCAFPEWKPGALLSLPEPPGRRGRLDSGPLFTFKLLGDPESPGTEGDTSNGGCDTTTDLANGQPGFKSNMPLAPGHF

[2] = DRUGMATRIX: Calcium Channel Type L, Phenylalkylamine radioligand binding (ligand: [3H] (-)-Desmethoxyverapamil (D-888)); type: cell membranes, Rattus norvegicus, Wistar, Brain, Membrane; settings: Not Active = under 50% inhibition at 10 µM
Insulin receptor = Insulin receptor (Rattus norvegicus, UniProt P15127); type: cell membranes, Wistar, Liver, Membrane; further: in other assays of this panel Not Active means under 50% inhibition at 10 µM
Sequence of Insulin receptor (P15127 27-759 limits assumed): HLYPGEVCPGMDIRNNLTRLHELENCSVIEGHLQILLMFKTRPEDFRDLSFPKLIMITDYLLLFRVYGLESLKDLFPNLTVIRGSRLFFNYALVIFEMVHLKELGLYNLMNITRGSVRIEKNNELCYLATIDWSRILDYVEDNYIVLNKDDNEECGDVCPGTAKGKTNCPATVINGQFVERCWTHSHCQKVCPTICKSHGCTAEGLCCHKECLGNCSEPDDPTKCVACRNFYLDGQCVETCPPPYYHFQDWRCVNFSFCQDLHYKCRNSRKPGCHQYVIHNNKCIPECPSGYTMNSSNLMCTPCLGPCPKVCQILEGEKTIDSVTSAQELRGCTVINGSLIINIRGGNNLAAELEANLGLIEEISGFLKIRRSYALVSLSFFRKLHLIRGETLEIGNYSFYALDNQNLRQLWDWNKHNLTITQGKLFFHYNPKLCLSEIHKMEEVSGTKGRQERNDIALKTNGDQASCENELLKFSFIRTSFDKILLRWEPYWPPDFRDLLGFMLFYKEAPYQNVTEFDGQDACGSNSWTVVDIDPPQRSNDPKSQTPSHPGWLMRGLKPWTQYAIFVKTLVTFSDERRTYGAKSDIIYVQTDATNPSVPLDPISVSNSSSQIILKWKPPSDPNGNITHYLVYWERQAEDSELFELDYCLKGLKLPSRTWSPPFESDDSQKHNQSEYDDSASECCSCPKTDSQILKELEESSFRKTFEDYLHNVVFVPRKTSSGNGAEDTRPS
Sequence of Insulin receptor (P15127 764-1383 limits assumed): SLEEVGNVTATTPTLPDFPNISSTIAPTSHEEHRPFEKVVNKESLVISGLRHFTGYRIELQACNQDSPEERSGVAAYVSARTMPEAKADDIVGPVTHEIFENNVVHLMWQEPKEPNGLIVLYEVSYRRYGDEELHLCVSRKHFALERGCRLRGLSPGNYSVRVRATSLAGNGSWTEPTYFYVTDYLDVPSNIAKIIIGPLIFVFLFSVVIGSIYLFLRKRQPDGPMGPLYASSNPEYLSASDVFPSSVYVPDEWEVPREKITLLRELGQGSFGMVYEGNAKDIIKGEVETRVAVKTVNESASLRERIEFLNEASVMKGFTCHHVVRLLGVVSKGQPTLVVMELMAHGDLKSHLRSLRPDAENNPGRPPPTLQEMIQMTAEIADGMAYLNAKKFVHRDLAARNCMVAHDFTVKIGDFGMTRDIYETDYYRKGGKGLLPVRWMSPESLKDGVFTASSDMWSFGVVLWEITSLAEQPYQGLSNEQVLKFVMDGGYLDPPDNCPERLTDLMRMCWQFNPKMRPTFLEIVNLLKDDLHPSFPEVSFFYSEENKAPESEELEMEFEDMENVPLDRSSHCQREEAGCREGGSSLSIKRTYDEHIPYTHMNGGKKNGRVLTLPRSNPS

[3] = molecular target: T2, Amine oxidase [flavin-containing] A (Homo sapiens, UniProt P21397); assay: DRUGMATRIX: Monoamine Oxidase MAO-A enzyme inhibition (substrate: Kynuramine); set-up: species or system BTI-TN-5B1-4; settings: bti-tn-5b1-4; Not Active = under 50% inhibition at 10 µM
T2 sequence (P21397 whole entry): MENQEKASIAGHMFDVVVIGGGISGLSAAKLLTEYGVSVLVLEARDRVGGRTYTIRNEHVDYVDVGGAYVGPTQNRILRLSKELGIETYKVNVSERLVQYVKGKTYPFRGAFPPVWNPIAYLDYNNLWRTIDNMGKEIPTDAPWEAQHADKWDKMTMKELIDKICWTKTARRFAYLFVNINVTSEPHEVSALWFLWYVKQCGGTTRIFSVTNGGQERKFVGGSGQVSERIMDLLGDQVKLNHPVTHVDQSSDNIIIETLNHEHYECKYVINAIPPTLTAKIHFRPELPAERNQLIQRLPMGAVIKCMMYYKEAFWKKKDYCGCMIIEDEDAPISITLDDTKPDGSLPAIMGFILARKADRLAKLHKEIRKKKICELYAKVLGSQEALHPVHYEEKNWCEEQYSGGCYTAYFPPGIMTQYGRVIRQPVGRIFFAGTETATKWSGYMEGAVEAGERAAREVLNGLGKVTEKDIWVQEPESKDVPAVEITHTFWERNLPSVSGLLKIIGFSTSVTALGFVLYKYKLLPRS

[4] = molecular target: T3, Muscarinic acetylcholine receptor M5 (Homo sapiens, UniProt P08912); type: cell membranes, Membrane; settings: cho-k1; further: in other assays of this panel Not Active means under 50% inhibition at 10 µM
T3 sequence (P08912 whole entry): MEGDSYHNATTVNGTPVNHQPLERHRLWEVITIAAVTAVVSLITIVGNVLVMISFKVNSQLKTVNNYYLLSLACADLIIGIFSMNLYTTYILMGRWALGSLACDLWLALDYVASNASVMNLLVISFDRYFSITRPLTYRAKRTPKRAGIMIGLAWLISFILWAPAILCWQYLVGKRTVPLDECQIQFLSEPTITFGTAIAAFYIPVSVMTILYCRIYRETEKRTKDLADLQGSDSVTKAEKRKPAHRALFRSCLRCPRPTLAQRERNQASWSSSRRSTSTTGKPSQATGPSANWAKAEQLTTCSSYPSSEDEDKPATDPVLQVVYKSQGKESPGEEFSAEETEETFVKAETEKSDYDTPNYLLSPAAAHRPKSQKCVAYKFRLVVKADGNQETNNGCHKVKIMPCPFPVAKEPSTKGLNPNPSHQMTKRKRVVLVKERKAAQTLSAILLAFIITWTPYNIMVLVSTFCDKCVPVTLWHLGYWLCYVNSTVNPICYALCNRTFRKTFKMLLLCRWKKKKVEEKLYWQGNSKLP

[5] = molecular target: 5-hydroxytryptamine receptor 1B (Rattus norvegicus, UniProt P28564); type: cell membranes, Wistar, Cerebral cortex, Membrane; further: in other assays of this panel Not Active means under 50% inhibition at 10 µM
Sequence of 5-hydroxytryptamine receptor 1B (P28564 whole entry): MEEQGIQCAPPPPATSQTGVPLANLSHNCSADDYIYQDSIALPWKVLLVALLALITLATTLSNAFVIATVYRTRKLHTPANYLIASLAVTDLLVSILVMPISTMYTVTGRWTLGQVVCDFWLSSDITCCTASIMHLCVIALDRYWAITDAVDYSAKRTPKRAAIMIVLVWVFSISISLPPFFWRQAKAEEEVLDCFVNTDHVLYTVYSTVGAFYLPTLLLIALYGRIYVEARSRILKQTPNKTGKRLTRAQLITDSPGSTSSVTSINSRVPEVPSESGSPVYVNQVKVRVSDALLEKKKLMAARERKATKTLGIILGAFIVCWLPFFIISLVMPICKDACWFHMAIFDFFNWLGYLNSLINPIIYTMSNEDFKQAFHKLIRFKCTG

Cytochrome P450 2D6 = Cytochrome P450 2D6 (Homo sapiens, UniProt P10635); settings: bti-tn-5b1-4; further: in other assays of this panel Not Active means under 50% inhibition at 10 µM
Sequence of Cytochrome P450 2D6 (P10635 whole entry): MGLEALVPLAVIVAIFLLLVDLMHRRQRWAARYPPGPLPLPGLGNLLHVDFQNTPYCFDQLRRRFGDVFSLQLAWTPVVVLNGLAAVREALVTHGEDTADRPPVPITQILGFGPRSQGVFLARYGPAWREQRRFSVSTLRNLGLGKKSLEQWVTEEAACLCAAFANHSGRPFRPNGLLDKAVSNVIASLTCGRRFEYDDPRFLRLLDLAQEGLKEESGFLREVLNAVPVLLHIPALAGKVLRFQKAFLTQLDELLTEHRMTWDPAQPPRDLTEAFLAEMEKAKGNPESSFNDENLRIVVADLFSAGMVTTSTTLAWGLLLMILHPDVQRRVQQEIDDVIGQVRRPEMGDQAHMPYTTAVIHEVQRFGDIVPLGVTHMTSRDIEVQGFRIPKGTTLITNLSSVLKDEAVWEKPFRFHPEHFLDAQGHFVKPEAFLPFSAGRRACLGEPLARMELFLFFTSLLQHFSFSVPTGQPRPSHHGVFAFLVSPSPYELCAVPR

STANNOUS FLUORIDE
Not Active: IC50 [1] | Ki [1] | IC50 [2] | Ki [2] | IC50 (Insulin receptor) | Ki (Insulin receptor) | IC50 [3] | Ki [3] | IC50 [4] | Ki [4] | IC50 [5] | Ki [5] | IC50 (Cytochrome P450 2D6) | Ki (Cytochrome P450 2D6)

C[C@@H](O)[C@H]1C(=O)N2C(C(=O)O)=C(S[C@@H]3CN[C@H](C(=O)N(C)C)C3)[C@H](C)[C@H]12 [MEROPENEM]
Not Active: IC50 [1] | IC50 [2] | Ki [2] | IC50 (Insulin receptor) | IC50 [3] | IC50 [4] | IC50 [5] | IC50 (Cytochrome P450 2D6) | Ki (Cytochrome P450 2D6)

COc1ncnc(NS(=O)(=O)c2ccc(N)cc2)c1OC [SULFADOXINE]
Not Active: IC50 [1] | IC50 [2] | Ki [2] | IC50 (Insulin receptor) | IC50 [3] | IC50 [4] | IC50 [5] | IC50 (Cytochrome P450 2D6) | Ki (Cytochrome P450 2D6)

CCCc1nn(C)c2c(=O)[nH]c(-c3cc(S(=O)(=O)N4CCN(C)CC4)ccc3OCC)nc12
1460 nM: IC50 ([1]; read-out: IC50)
Not Active: IC50 [2] | Ki [2] | IC50 (Insulin receptor) | IC50 [3] | IC50 [4] | IC50 [5] | IC50 (Cytochrome P450 2D6) | Ki (Cytochrome P450 2D6)
806 nM: Ki ([1]; read-out: Ki)

COc1ccc(/C=C/C(=O)Nc2ccccc2C(=O)O)cc1OC
Not Active: IC50 [1] | IC50 [2] | Ki [2] | IC50 (Insulin receptor) | IC50 [3] | IC50 [4] | IC50 [5] | IC50 (Cytochrome P450 2D6) | Ki (Cytochrome P450 2D6)

CC1=C(CC(=O)O)c2cc(F)ccc2/C1=C\c1ccc(S(C)(=O)=O)cc1 [EXISULIND]
Not Active: IC50 [1] | IC50 [2] | Ki [2] | IC50 (Insulin receptor) | IC50 [3] | IC50 [4] | IC50 [5] | IC50 (Cytochrome P450 2D6) | Ki (Cytochrome P450 2D6)

CN1C2CCCC1CC(NC(=O)c1nn(C)c3ccccc13)C2 (stereo not given) [GRANISETRON]
Not Active: IC50 (Insulin receptor) | IC50 [3] | IC50 [4] | IC50 [5]

Cc1cn([C@H]2C[C@H](N=[N+]=[N-])[C@@H](CO)O2)c(=O)[nH]c1=O [ZIDOVUDINE]
Not Active: IC50 [1] | IC50 [2] | Ki [2] | IC50 (Insulin receptor) | IC50 [3] | IC50 [4] | IC50 [5] | IC50 (Cytochrome P450 2D6) | Ki (Cytochrome P450 2D6)

OCCN1CCN(CCCN2c3ccccc3Sc3ccc(C(F)(F)F)cc32)CC1 [FLUPHENAZINE]
869 nM: Ki ([5]; read-out: Ki)
Not Active: IC50 (Insulin receptor) | IC50 [3] | IC50 [4]
1910 nM: IC50 ([5]; read-out: IC50)

CC(C)(C)NC[C@H](O)COc1nsnc1N1CCOCC1 [TIMOLOL]
Not Active: IC50 [1] | IC50 [2] | Ki [2] | IC50 (Insulin receptor) | IC50 [3] | IC50 [4] | IC50 [5] | IC50 (Cytochrome P450 2D6) | Ki (Cytochrome P450 2D6)

Nc1nc2c(c(=O)[nH]1)N(C=O)C(CNc1ccc(C(=O)N[C@@H](CCC(=O)O)C(=O)O)cc1)CN2 (stereo not given in full) [LEUCOVORIN]
Not Active: IC50 [1] | IC50 [2] | Ki [2] | IC50 (Insulin receptor) | IC50 [3] | IC50 [4] | IC50 [5] | IC50 (Cytochrome P450 2D6) | Ki (Cytochrome P450 2D6)

O=c1n(CCCN2CCN(c3cccc(Cl)c3)CC2)nc2ccccn12 [TRAZODONE]
Not Active: IC50 (Insulin receptor) | IC50 [3] | IC50 [4] | IC50 (Cytochrome P450 2D6) | Ki (Cytochrome P450 2D6)
1360 nM: IC50 ([5]; read-out: IC50)
830 nM: Ki ([5]; read-out: Ki)

COc1cc(C(=O)NS(=O)(=O)c2ccccc2C)ccc1Cc1cn(C)c2ccc(NC(=O)OC3CCCC3)cc12 [ZAFIRLUKAST]
Not Active: IC50 [1] | IC50 [2] | Ki [2] | IC50 (Insulin receptor) | IC50 [3] | IC50 [4] | IC50 [5] | IC50 (Cytochrome P450 2D6) | Ki (Cytochrome P450 2D6)

CCOC(N)=O
Not Active: IC50 [1] | IC50 [2] | Ki [2] | IC50 (Insulin receptor) | IC50 [3] | IC50 [4] | IC50 [5] | IC50 (Cytochrome P450 2D6) | Ki (Cytochrome P450 2D6)

CN(CCOc1ccc(CC2SC(=O)NC2=O)cc1)c1ccccn1 (stereo not given) [ROSIGLITAZONE]
Not Active: IC50 [1] | IC50 [2] | Ki [2] | IC50 (Insulin receptor) | IC50 [3] | IC50 [4] | IC50 [5]

CC(=O)O[C@H]1C[C@@H]2CC[C@@H]3[C@H](CC[C@@]4(C)[C@H]3C[C@H]([N+]3(C)CCCCC3)[C@@H]4OC(C)=O)[C@@]2(C)C[C@@H]1N1CCCCC1.[Br-] [VECURONIUM BROMIDE]
Not Active: IC50 [1] | IC50 [2] | Ki [2] | IC50 (Insulin receptor) | IC50 [3] | IC50 [4] | IC50 [5] | IC50 (Cytochrome P450 2D6) | Ki (Cytochrome P450 2D6)

CCS(=O)(=O)CCn1c([N+](=O)[O-])cnc1C [TINIDAZOLE]
Not Active: IC50 [1] | IC50 [2] | Ki [2] | IC50 (Insulin receptor) | IC50 [3] | IC50 [4] | IC50 [5]

C#CCN(C)[C@H](C)Cc1ccccc1 [SELEGILINE]
Not Active: IC50 [1] | IC50 [2] | Ki [2] | IC50 (Insulin receptor) | IC50 [4] | IC50 [5] | IC50 (Cytochrome P450 2D6) | Ki (Cytochrome P450 2D6)

CC(C)OC(=O)C(C)(C)Oc1ccc(C(=O)c2ccc(Cl)cc2)cc1 [FENOFIBRATE]
Not Active: IC50 (Insulin receptor) | IC50 [3] | IC50 [4] | IC50 [5]

CCN(CC)CC#CCOC(=O)C(O)(c1ccccc1)C1CCCCC1 (stereo not given) [OXYBUTYNIN]
Not Active: IC50 (Insulin receptor) | IC50 [3] | IC50 [5] | IC50 (Cytochrome P450 2D6) | Ki (Cytochrome P450 2D6)

CC(=O)Nc1nnc(S(N)(=O)=O)s1 [ACETAZOLAMIDE]
Not Active: IC50 (Insulin receptor) | IC50 [3] | IC50 [4] | IC50 [5] | IC50 (Cytochrome P450 2D6) | Ki (Cytochrome P450 2D6)

COc1cc(N)nc2[nH]c(-c3ccc(F)cc3)c(-c3ccncc3)c12
Not Active: IC50 [1] | IC50 [2] | Ki [2] | IC50 (Insulin receptor) | IC50 [3] | IC50 [4] | IC50 [5]

CNS(=O)(=O)Cc1ccc2[nH]cc(CCN(C)C)c2c1
Not Active: IC50 [1] | IC50 [2] | Ki [2] | IC50 (Insulin receptor) | IC50 [3] | IC50 [4] | IC50 (Cytochrome P450 2D6) | Ki (Cytochrome P450 2D6)

CC[C@@H](CO)NC(=O)[C@@H]1C=C2c3cccc4c3c(cn4C)C[C@H]2N(C)C1 [METHYSERGIDE]
Not Active: IC50 (Insulin receptor) | IC50 [3] | IC50 [4] | IC50 (Cytochrome P450 2D6) | Ki (Cytochrome P450 2D6)
177 nM: IC50 ([5]; read-out: IC50)
108 nM: Ki ([5]; read-out: Ki)

O=c1[nH]c2ccccc2n1CCCN1CCC(n2c(=O)[nH]c3cc(Cl)ccc32)CC1 [DOMPERIDONE]
Not Active: IC50 (Insulin receptor) | IC50 [3] | IC50 [4] | IC50 [5]

COc1ccc(CN2CCNCC2)c(OC)c1OC [TRIMETAZIDINE]
Not Active: IC50 [1] | IC50 [2] | Ki [2] | IC50 (Insulin receptor) | IC50 [3] | IC50 [4] | IC50 [5]
